{
  "source": "patent US20050209140A1",
  "about": "“Methods of controlling axonal growth” (MASSACHUSETTS INSTITUTE OF TECHNOLOGY, priority 1996, published 2005)",
  "key": {"[1]": {"tested_on": "retinal ganglion cells (RGCs)", "experiment": "Dissociated retinal cell culture: survival and neurite outgrowth of prelabeled RGCs", "type": "cell-based, mouse", "procedure": "(§1) Primary cultures of dissociated retinal cells were prepared from P2 wild-type or transgenic animals. RGCs were prelabeled by injecting DiI solution (25% in Dimethyl Formamide) into the tectal region bilaterally in P0 pups. Cells were plated in 24-cell wells treated with poly-L-lysine ([…], 4° C. overnight) and coated with Human Merosin ([…], r.t., 2 hr)(Meyer-Franke, A. and Barres, B. A. Neuron 15, 805-819 (1995)). Cultures were maintained for 2 to 3 days in NeuralBasal medium supplemented with B27. Trypan blue staining was used to examine the viability of retinal ganglion cells (RGCs). Retinotectal cocultures prepared from wild-type P2 mice were described previously and ZVAD (Z-Val-Ala-Asp-CH2F, Enzyme Systems Products) was added to the culture medium at the time of plating. Cell death was detected by staining with the fluorescent dye, SYTOX green fluorescent dead cell stain (Molecular Probes). Cultures were visualized under an inverted Nikon microscope equipped with Nomarski and epifluorescence illumination.\nWhether these two activities of neurons, survival and axonal growth, can be separated in vitro was next examined. […]"}, "retinal explants (RGCs)": {"tested_on": "retinal explants (RGCs)", "experiment": "Retinotectal explant coculture: cell death in retinal explants and retinal axon growth into tectal slices", "type": "cell-based, mouse", "procedure": "Brains were dissected into ice-cold Gey's balanced salt solution enriched with glucose. […] Retinal explants were abutted against tectal slices. Tissues were placed on the microporous membrane of Millicell wells (Millipore) and maintained in NeuralBasal medium supplemented with B27 (GIBCO Inc., New York) at 37° C. for five days. To exclude the possibility that tectal tissues from mutant mice may affect axonal growth of RGCs, a series of parallel experiments were perforemd in which one retinal explant of each mouse was confronted with the tectum from the same mouse, while the second retinal explant was placed against the tectum from another mouse. With this arrangement, retinal explants from each animal had the possibility of being cocultured with the tectum from a wild-type, heterozygous, or homozygous animal. The number of regenerating axons was sampled by applying the lipophilic carbocyanine fluorescent label, DiI, in crystals to fixed retinal explants. The cocultures were stored in fixative for two-four weeks to allow diffusion of the dye, and labeled retinal axons were viewed with a fluorescence microscope (Nikon).\nas §1\nThe effect of the ICE inhibitor was also tested in the explant coculture system with tissue prepared from wild-type P2 mice."}},
  "note": "“Also recorded” adds a separate entry of the source. Where a SMILES comes first, the peptide text is derived from it.",
  "data": [
    {"molecule": "CC(C)[C@H](NC(=O)OCc1ccccc1)C(=O)N[C@@H](C)C(=O)N[C@@H](CC(=O)O)C(=O)CF", "note": "[ZVAD, Z-Val-Ala-Asp-CH2F] (HELM PEPTIDE1{[O=C(OCc1ccccc1)[*:2]].V.A.D.[FC[*:1]]}$$$$V2.0)", "values": [
      {"measurement": "neurite outgrowth of labeled RGCs in dissociated culture", "setting": "[1]; ZVAD-treated RGCs from wild-type P2 animals, no neurotrophic factors added, n=36", "value": "round and devoid of neurites"},
      {"measurement": "RGC death in dissociated retinal cell culture", "setting": "[1]; retinae of P2 pups, ZVAD at a concentration of 10 mM or above, after 2 days in culture", "value": "effectively reduced RGC death"},
      {"measurement": "ability to promote axonal growth", "setting": "retinal explants (RGCs); overall conclusion of the ZVAD experiments", "value": "not sufficient to promote axonal growth; also recorded: not sufficient to support axonal growth"},
      {"measurement": "protection of cells from death in retinal explants compared with bcl-2 transgenic mouse", "setting": "retinal explants (RGCs); wild-type P2 mice", "value": "protected cells from death almost as well as bcl-2"},
      {"measurement": "number of growing retinal axons with increasing concentration of ZVAD", "setting": "retinal explants (RGCs); wild-type P2 mice, ZVAD 50, 100, 200 µM", "value": "did not change significantly"},
      {"measurement": "extent of cell death in retinal explants", "setting": "retinal explants (RGCs); wild-type P2 mice, ZVAD 50, 100, 200 µM, SYTOX green dead cell stain", "value": "reduced the extent of cell death; also recorded: number of dying cells in retinal explants decreased"},
      {"measurement": "number of axons that invaded tectal slices, ZVAD-treated wild-type cultures versus bcl-2 transgenic mice", "setting": "retinal explants (RGCs); wild-type P2 mice, fold less than bcl-2 transgenic", "value": 10, "unit": "fold"}
    ]}
  ]
}
